Measured values reported in the CombiSolv-Exp solvation set (Vermeire and Green 2021).

Experiment: solvent given as SMILES

ClC1=C(Cl)C2(Cl)C3C(Cl)C=CC3C1(Cl)C2(Cl)Cl (stereo not drawn)
Details | solvation free energy, 298 K [kJ/mol]
in CCCCCCCCC=CCCCCCCCC(=O)OCC(COC(=O)CCCCCCCC=CCCCCCCCC)OC(=O)CCCCCCCC=CCCCCCCCC | -56.4
in CCCCCCCCO | -44.3
in O | -10.7

c1ccc2ccccc2c1
Details | solvation free energy, 298 K [kJ/mol]
in C1CCOC1 | -34.4
in C1COCCO1 | -33.4
in CC(=O)OCC(C)C | -32.2
in CC(C)(C)O | -28.7
in CC(C)=O | -32.8
in CC(C)CC(C)(C)C | -29
in CC(C)CO | -29.7
in CC(C)O | -28.9
in CCC(C)O | -28.8
in CCCCCC | -30.3
in CCCCCCC | -30.2
in CCCCCCCCC=CCCCCCCCC(=O)OCC(COC(=O)CCCCCCCC=CCCCCCCCC)OC(=O)CCCCCCCC=CCCCCCCCC | -31.6
in CCCCCCCCO | -29.6
in CCCCCCO | -29.8
in CCCCCO | -28.8
in CCCCO | -29.7
in CCCO | -29.6
in CCO | -29.6
in CCOC(C)=O | -32.6
in CN1CCCC1=O | -33.8
in CN(C)C=O | -33.3
in CO | -29.3
in Cc1ccc(C)cc1 | -33
in Cc1cccc(C)c1 | -32.9
in Cc1ccccc1C | -32.8
in ClC(Cl)(Cl)Cl | -31.9
in ClCCCl | -33.6
in ClCCl | -33.9
in Clc1ccccc1 | -32.9
in O | -9.92
in O=C1CCCCC1 | -32.3

CN(C)C1CCCCC1
Details | solvation free energy, 298 K [kJ/mol]
in O | -17.2

CC(C)(C)OC(=O)c1ccccc1C(=O)OC(C)(C)C
Details | solvation free energy, 298 K [kJ/mol]
in O | -29.7

CCc1ccncc1
Details | solvation free energy, 298 K [kJ/mol]
in O | -19.8

O=C(O)c1cc([N+](=O)[O-])ccc1Cl
Details | solvation free energy, 298 K [kJ/mol]
in C1CCOC1 | -57.1
in CC(C)(C)O | -54.9
in CC(C)CCO | -53.5
in CC(C)CO | -53.3
in CC(C)O | -54.7
in CC(C)OC(C)C | -50.2
in CCC(C)O | -54.2
in CCCC(C)O | -53.7
in CCCCCCCCCCO | -52.1
in CCCCCCCCO | -52.6
in CCCCCCCO | -52.9
in CCCCCCO | -52.9
in CCCCCO | -53.7
in CCCCO | -53.8
in CCCCOC(C)=O | -52.1
in CCCO | -54.3
in CCCOC(C)=O | -52.8
in CCO | -55.3
in CCOC(C)=O | -53.7
in CCOCC | -53.5
in COC(C)=O | -54.1
in O | -39.7

Clc1cccc2c1Oc1ccccc1O2
Details | solvation free energy, 298 K [kJ/mol]
in O | -14.7

CCCCCCCCCCOC(=O)c1ccccc1C(=O)OCCCCC
Details | solvation free energy, 298 K [kJ/mol]
in O | -27.2

c1c[nH]cn1
Details | solvation free energy, 298 K [kJ/mol]
in O | -40.3

c1cc2cccc3c4cccc5cccc(c(c1)c23)c54
Details | solvation free energy, 298 K [kJ/mol]
in CCCCCCCCC=CCCCCCCCC(=O)OCC(COC(=O)CCCCCCCC=CCCCCCCCC)OC(=O)CCCCCCCC=CCCCCCCCC | -70.7
in O | -32.8

C=C(CCC=C(C)C)C1CC=C(C)CC1 (stereo not drawn)
Details | solvation free energy, 298 K [kJ/mol]
in O | -2.09

CN(C)C(=O)c1ccc([N+](=O)[O-])cc1
Details | solvation free energy, 298 K [kJ/mol]
in O | -50

CCCC(=O)OC
Details | solvation free energy, 298 K [kJ/mol]
in CCCO | -18.7
in CO | -20.3
in O | -11.9

ClC1=C(Cl)C2(Cl)C3C4C=CC(C4)C3C1(Cl)C2(Cl)Cl (stereo not drawn)
Details | solvation free energy, 298 K [kJ/mol]
in CCCCCCCCO | -47.2
in O | -15.7

CC1=CC=C(C(C)C)CC1
Details | solvation free energy, 298 K [kJ/mol]
in O | 0.502

C1=CCCCCCC1
Details | solvation free energy, 298 K [kJ/mol]
in CN1CCCC1=O | -20.5
in CN(C)C=O | -20

ClC(Cl)(Cl)Br
Details | solvation free energy, 298 K [kJ/mol]
in CS(C)=O | -20

Oc1c(I)cc(I)cc1I
Details | solvation free energy, 298 K [kJ/mol]
in CC(C)CC(C)(C)C | -52
in CCCCOCCCC | -59.2
in O | -30

c1cc2ccc3cccc4ccc(c1)c2c34
Details | solvation free energy, 298 K [kJ/mol]
in Brc1ccccc1 | -55.1
in C1CCOC1 | -56.1
in C1COCCO1 | -54.5
in CC(=O)N(C)C | -55.8
in CC(C)(C)O | -46.7
in CC(C)=O | -53.2
in CC(C)CC(C)(C)C | -47.3
in CC(C)CC(C)O | -47.6
in CC(C)CCO | -47.6
in CC(C)CO | -46.7
in CC(C)O | -47.9
in CC(C)OC(C)C | -50.2
in CC(O)COC(C)(C)C | -51.4
in CCC(C)(C)O | -47.9
in CCC(C)=O | -54.2
in CCC(C)O | -47.5
in CCCC(=O)OC | -53.1
in CCCC(C)CO | -48.2
in CCCC(C)O | -48
in CCCCC(CC)CO | -48.8
in CCCCCC | -48.3
in CCCCCCC | -48.7
in CCCCCCCC | -49
in CCCCCCCCC=CCCCCCCCC(=O)OCC(COC(=O)CCCCCCCC=CCCCCCCCC)OC(=O)CCCCCCCC=CCCCCCCCC | -51.4
in CCCCCCCCCC | -49.3
in CCCCCCCCO | -50
in CCCCCCCO | -49.2
in CCCCCCO | -49.4
in CCCCCO | -49
in CCCCCOC(C)=O | -53.2
in CCCCCl | -53.6
in CCCCO | -48.4
in CCCCOC(C)=O | -53
in CCCCOCCCC | -50.8
in CCCCOCCO | -52
in CCCO | -47.9
in CCCOCCO | -52
in CCO | -48.3
in CCOC(C)=O | -53
in CCOCC | -51.8
in CCOCCO | -52.1
in CN(C)C=O | -55.2
in CNC=O | -49.6
in CO | -46.9
in COC(C)(C)C | -51.1
in COC(C)=O | -52.8
in COC(C)CCO | -51.3
in COCCO | -51.2
in Cc1ccc(C)cc1 | -53.6
in Cc1cccc(C)c1 | -53.6
in Cc1ccccc1C | -53.8
in ClC(Cl)(Cl)Cl | -53
in ClC(Cl)Cl | -55
in ClCCCl | -55.1
in Fc1ccccc1 | -53.9
in N#Cc1ccccc1 | -54.8
in O | -20
in O=C1CCCCC1 | -55.1

Cc1ccc(C)c(O)c1
Details | solvation free energy, 298 K [kJ/mol]
in CCCCCC | -27
in CCCCCCC | -26.9
in CCCCCCCC | -26.9
in Cc1ccc(C)cc1 | -32.3
in Cc1cccc(C)c1 | -32.5
in Cc1ccccc1C | -32.6
in O | -24.8

OCCc1ccccc1
Details | solvation free energy, 298 K [kJ/mol]
in O | -28.4

Clc1cccnc1
Details | solvation free energy, 298 K [kJ/mol]
in O | -16.8

Clc1ccc(Cl)c(Cl)c1
Details | solvation free energy, 298 K [kJ/mol]
in CCCCCC | -29.2
in O | -4.85

COc1ccc(C(=O)O)cc1
Details | solvation free energy, 298 K [kJ/mol]
in C1CCOC1 | -53.3
in C1COCCO1 | -51.9
in CC(C)CCO | -48.1
in CC(C)CO | -47.9
in CC(C)O | -49.3
in CC(C)OC(C)C | -45.2
in CC(C)OCCO | -51.3
in CC(O)COC(C)(C)C | -50
in CCC(C)O | -49.1
in CCCC(C)O | -48.7
in CCCCCCCCCCO | -47.5
in CCCCCCCCO | -48
in CCCCCCCO | -48.2
in CCCCCCO | -48.4
in CCCCCO | -48.6
in CCCCO | -48.9
in CCCCOC(C)=O | -48
in CCCCOCCO | -51.2
in CCCO | -49.2
in CCCOCCO | -51.1
in CCO | -50.2
in CCOC(C)=O | -49.2
in CCOCC | -48.3
in CCOCCO | -52
in COC(C)CCO | -51.4
in O | -38.2
